Results reported in patent US11166944B2 (AI Therapeutics, priority 2014, dated 2021).
Blank lines part the entries; values can stand above or below the molecule they belong to.

Assays:
[1] = test system: renal clear cell carcinoma cell line RCC-ER; assay: Antiproliferative single treatment study (CellTiterGlo, 120 h); type: cell-based; details: read-out: IC50 (Avg., n=2)
Procedure: (§1) All drug dilutions were made up as a 2× stock and 50 μL added to appropriate wells. Cells were treated for 120 h before viability was assessed using CellTiterGlo® (Promega) where the relative luminescence of untreated cells was set to 100% viability and each drug concentration expressed as a percentage of untreated cells. EC50 values were determined using GraphPad Prism (GraphPad Software, Inc). Briefly, raw data was log transformed and then analyzed using nonlinear regression (curve fit) where the data were constrained (bottom=0, top=100).

[2] = test system: renal clear cell carcinoma cell line RCC-FG2; assay: as above; type: cell-based; details: read-out: IC50 (Avg., n=2); RCC-FG2, 120 h
Procedure: as §1

[3] = test system: renal clear cell carcinoma cell line RCC-MF; assay: as above; type: cell-based; details: read-out: IC50 (Avg., n=2)
Procedure: as §1

[4] = test system: renal clear cell carcinoma cell line RCC-JW; assay: as above; type: cell-based; details: read-out: IC50 (Avg., n=2)
Procedure: as §1

[5] = test system: renal clear cell carcinoma cell line 769-P; assay: as above; type: cell-based; details: Homo sapiens, read-out: IC50 (Avg., n=2)
Procedure: as §1

[6] = test system: renal clear cell carcinoma cell line RCC-JF; assay: as above; type: cell-based; details: read-out: IC50 (Avg., n=2)
Procedure: as §1

[7] = test system: renal clear cell carcinoma cell line A704; assay: as above; type: cell-based; details: Homo sapiens, A704, 120 h, read-out: IC50 (Avg., n=2)
Procedure: as §1

[8] = test system: renal clear cell carcinoma cell line 786-O; assay: as above; type: cell-based; details: Homo sapiens, 786-0, read-out: IC50 (Avg., n=2)
Procedure: as §1

[9] = test system: normal lung fibroblasts; assay: Cytotoxicity in normal cells; type: cell-based; details: concentrations as high as 10 micromolar
From the text: (§2) 35 cell lines were identified as sensitive to apilimod-induced cytotoxicity.

[10] = test system: patients with rheumatoid arthritis; details: Phase II; cited from earlier work
[11] = test system: U937; details: cited from earlier work
[12] = test system: HELA; details: cited from earlier work
[13] = test system: ELT3-TSC2 cells; assay: 10-point dose response viability (CellTiter-Glo, 72 hours); type: cell-based; details: Rattus norvegicus; ELT3 rescue line; average of two experiments
From the text: (§3) See e.g., Zhang et al. J. Clin. Invest. 112, 1223-33, 2003. (2) ELT3-EV and ELT3-TSC2 lines were established from the ELT3 rat tumor cell line. The ELT3 line is an established rat tumor model for LAM/TSC. See e.g., Howe et al., Am. J. Path. 146, 1568-79, 1995. These cells harbor an inactivating mutation in TSC2, which leads to constitutive activation of the mTOR pathway. To develop an isogenic pair of cells ELT3 cells were infected with a retrovirus vector encoding the hygromycin antibiotic resistance gene (ELT3-EV) or the same retrovirus vector also encoding TSC2 (ELT3-TSC2). The ELT3-EV and ELT3-TSC2 line were then established by hygromycin selection. (3) TRI-AML102 and AML103 lines were established from a TSC2 null primary human AML sample provided by Dr. Elizabeth Henske (Fox Chase Cancer Center, Philadelphia, Pa.). The cells were infected with amphotropic retrovirus LXSN16E6E7 that encodes the HPV16 E6 and E7 open reading frames and neomycin resistance cassette. Cells were expanded and neomycin-selected. Individual clones were isolated and frozen down. The coding sequence for the human Telomerase gene (hTERT) with hygromycin resistance cassette (pLXSN hTERT-hyg plasmid) was stably expressed into a TSC2^−/− confirmed E6E7 AML clone using Fugene6 transfection reagent (Roche Applied Science, Indianapolis, Ind.). TRI-AML102 was generated by stable incorporation of a control zeomycin selection plasmid (pcDNA3.1-zeo), while TRI-AML103 expresses the human TSC2 cDNA pcDNA3.1-zeo plasmid. As a result of these engineering processes, both TRI102 and TRI103 are neomycin, hygromycin, and zeomycin resistant lines.
(§4) IC50 values were then calculated from the dose response curves using XLFIT (IDBS).

[14] = test system: TRI-AML103 (TSC2 rescue AML) cells; assay: as above; type: cell-based; details: Homo sapiens; AML column, rescue line; average of two experiments
From the text: as §3, §4

[15] = test system: ELT3-EV cells; assay: as above; type: cell-based; details: Rattus norvegicus, average of two experiments, read-out: IC50 TSC2−/− (viability)
From the text: as §3, §4

[16] = test system: MEF-EV (TSC2−/−) cells; assay: as above; type: cell-based; details: Mus musculus, average of two experiments
From the text: as §3, §4

[17] = test system: (TSC2+/−, p53−/−) MEF line; assay: as above; type: cell-based; details: Mus musculus; MEF TSC2+/− p53−/− as counterpart of TSC2−/− p53−/−; average of two experiments; read-out: IC50 TSC2 rescue (viability)
From the text: as §3, §4

[18] = test system: MEF-TSC2 (TSC2 rescue) cells; assay: as above; type: cell-based; details: Mus musculus; MEF TSC2 rescue line; average of two experiments
From the text: as §3, §4

[19] = test system: TRI-AML102 (TSC2 null AML) cells; assay: as above; type: cell-based; details: Homo sapiens; AML column; average of two experiments
From the text: as §3, §4

[20] = test system: (TSC2−/−, p53−/−) MEF line; assay: as above; type: cell-based; details: Mus musculus, average of two experiments
From the text: as §3, §4

[21] = test system: H4 neuroglioma cell line; assay: Autophagic vacuoles (Cyto-ID Autophagy detection kit); type: cell-based, human; details: H4 cells, 72 hours of treatment
From the text: (§5) Autophagy was quantified using the Cyto-ID Autophagy detection kit (Enzo) according to manufacturer's directions.

[22] = test system: peripheral blood mononuclear cells; details: cited from earlier work
[23] = test system: Jurkat; details: cited from earlier work
[24] = test system: THP-1; details: cited from earlier work
[25] = test system: H4; assay: Cell viability dose response; type: cell-based; details: Homo sapiens, H4, Human neuroglioma
From the text: as §2, §5
No statistically significant relationship was found with the sole exception of IL-23A (p=0.022). […] Importantly, the statistical significance of IL-23A expression in sensitive cancer lines appears to be driven entirely by just two colon cancer lines. Furthermore IL-23A expression is not a statistically significant predictor of sensitivity in Non-Hodgkin's B cell lymphoma.

[26] = molecular target: T1, Vac14 (Homo sapiens, UniProt Q08AM6); assay: Chemical capture mass spectrometry (CCMS) in H4 whole cell lysate; type: binding; details: apilimod as competitor ligand
T1 construct: endogenous in cells; host or cells: H4 human neuroglioma cells (whole cell lysate)
T1 sequence (Q08AM6 whole entry): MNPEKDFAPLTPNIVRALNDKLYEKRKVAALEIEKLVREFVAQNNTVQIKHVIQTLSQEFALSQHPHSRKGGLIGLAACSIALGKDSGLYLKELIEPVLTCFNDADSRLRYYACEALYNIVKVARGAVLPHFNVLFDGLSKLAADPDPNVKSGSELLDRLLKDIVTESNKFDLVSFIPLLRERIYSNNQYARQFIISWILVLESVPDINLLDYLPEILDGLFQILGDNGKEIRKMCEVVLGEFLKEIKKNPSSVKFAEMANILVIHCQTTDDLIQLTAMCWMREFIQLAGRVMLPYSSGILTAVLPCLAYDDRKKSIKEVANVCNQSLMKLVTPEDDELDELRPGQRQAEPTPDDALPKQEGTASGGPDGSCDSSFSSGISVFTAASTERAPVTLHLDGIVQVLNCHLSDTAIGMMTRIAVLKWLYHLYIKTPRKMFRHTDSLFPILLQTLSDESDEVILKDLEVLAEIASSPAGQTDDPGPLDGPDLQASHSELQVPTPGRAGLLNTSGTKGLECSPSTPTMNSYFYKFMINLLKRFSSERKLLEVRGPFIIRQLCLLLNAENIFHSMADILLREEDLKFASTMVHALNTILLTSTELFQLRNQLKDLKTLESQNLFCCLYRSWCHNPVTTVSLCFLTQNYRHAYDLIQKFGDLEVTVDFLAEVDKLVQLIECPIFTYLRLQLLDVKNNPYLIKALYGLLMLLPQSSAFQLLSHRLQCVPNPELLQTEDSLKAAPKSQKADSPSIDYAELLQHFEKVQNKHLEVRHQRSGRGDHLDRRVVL
T1 sequence (Q9Y2I7 2-2098 partner): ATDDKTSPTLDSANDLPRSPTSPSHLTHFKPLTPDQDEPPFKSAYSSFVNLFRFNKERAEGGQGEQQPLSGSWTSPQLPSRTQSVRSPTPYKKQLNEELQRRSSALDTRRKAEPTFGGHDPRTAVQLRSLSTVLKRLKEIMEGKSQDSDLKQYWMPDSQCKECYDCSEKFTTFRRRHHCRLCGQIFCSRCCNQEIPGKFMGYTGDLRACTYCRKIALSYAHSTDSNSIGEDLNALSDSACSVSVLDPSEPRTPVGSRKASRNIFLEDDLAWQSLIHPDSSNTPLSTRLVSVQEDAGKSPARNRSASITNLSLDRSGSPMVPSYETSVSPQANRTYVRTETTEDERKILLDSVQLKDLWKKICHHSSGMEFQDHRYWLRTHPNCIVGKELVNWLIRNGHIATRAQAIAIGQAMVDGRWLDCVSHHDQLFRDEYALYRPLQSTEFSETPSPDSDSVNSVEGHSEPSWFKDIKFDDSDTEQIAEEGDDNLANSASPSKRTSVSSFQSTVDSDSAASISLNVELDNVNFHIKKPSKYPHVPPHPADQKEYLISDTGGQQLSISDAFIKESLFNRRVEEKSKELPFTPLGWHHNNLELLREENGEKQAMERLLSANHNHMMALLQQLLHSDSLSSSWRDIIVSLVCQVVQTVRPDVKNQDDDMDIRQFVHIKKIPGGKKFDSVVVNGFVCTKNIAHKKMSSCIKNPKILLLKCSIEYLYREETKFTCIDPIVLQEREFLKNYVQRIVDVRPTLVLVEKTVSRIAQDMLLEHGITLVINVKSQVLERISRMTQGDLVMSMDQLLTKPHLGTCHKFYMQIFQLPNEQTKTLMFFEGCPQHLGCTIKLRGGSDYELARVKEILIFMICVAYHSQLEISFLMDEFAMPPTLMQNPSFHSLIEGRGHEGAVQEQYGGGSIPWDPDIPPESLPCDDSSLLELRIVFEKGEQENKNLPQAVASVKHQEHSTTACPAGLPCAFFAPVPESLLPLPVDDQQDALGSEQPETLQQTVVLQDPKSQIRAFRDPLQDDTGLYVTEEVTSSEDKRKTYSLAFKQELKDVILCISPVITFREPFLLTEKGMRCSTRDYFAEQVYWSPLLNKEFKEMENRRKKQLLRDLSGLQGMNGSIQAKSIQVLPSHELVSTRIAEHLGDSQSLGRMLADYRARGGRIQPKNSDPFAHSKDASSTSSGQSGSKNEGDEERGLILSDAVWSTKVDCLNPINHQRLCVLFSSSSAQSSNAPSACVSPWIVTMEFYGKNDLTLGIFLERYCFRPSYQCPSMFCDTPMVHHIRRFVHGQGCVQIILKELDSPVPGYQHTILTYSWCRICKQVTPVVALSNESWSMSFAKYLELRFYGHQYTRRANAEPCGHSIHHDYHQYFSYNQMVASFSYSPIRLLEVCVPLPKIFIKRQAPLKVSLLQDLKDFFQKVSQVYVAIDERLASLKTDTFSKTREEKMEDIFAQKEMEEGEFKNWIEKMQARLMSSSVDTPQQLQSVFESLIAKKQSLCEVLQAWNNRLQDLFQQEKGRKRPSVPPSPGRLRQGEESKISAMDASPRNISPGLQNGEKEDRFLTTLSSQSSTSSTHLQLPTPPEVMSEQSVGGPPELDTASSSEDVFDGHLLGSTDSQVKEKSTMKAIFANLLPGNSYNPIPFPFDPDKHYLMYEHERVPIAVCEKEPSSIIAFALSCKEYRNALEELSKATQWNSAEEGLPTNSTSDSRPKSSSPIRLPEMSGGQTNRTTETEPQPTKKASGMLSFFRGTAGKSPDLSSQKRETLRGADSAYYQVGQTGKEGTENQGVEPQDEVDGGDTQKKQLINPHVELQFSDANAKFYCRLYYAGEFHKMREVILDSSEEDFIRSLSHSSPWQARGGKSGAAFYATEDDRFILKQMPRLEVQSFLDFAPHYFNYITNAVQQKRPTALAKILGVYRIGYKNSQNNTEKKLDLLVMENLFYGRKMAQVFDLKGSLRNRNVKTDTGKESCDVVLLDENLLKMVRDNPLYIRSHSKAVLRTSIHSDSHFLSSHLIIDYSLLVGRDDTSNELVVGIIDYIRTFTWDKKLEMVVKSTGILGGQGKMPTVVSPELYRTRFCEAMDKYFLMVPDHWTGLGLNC
Procedure: This work was performed at Caprotec Bioanalytics GmbH, Berlin Germany. See Michaelis et al., J. Med. Chem., 55 3934-44 (2012) and references cited therein.
Capture conditions were optimized in whole cell lysate from H4 (human neuroglioma) cancer cells, e.g. minimization of non-specific interactions of the proteins with capture compounds, concentration of reagents and proteins to obtain maximum binding of proteins and capture compounds, etc. […] These specific binders were further subjected to stringent data analysis criteria to determine specificity after unbiased data evaluation. Specific protein binders were ranked according to their fold change (FC) values in the capture experiments.

IC50 [1]: 9 nM | IC50 [2]: 32 nM | IC50 [3]: 8 nM | IC50 [4]: 27 nM | IC50 [5]: 44 nM | IC50 [6]: 60 nM | IC50 [7]: 11 nM | IC50 [8]: 71 nM
Structure (SMILES): Cc1cccc(/C=N/Nc2cc(N3CCOCC3)nc(OCCc3ccccn3)n2)c1 [LAM-002]

log (FC) ([26]; capture compound 0.1 μM): 6.2 | log (FC) ([26]; capture compound 0.5 μM): 5.6 | log (FC) ([26]; capture compound 1.0 μM): Inf. | log (FC) ([26]; capture compound 2.0 μM): 3.9
Structure (SMILES): Cc1cccc(/C=N/Nc2cc(N3CCOCC3)nc(OCCc3ccccn3)n2)c1 [apilimod]
sensitivity to apilimod-induced cytotoxicity [9]: not sensitive | synovial IL-12 and IL-23 expression [10]: failed to alter synovial IL-12 and IL-23 expression | cytotoxicity [11]: not cytotoxic | cytotoxicity [12]: not cytotoxic | IC50 [13]: 16.1 nM | IC50 [14]: 132 nM | IC50 [15]: 13.7 nM | IC50 [16]: 19.7 nM | IC50 [17]: 70.7 nM | IC50 [18]: 20.1 nM | IC50 [19]: 117 nM | IC50 [20]: 28.8 nM | autophagy (autophagic vacuoles) [21]: induces autophagy in a dose-dependent manner | cytotoxicity [22]: not cytotoxic | cytotoxicity [23]: not cytotoxic | cytotoxicity [24]: not cytotoxic | IC50 [25]: 250 to 300 nM
